Source: PubChem BioAssay AID1918949 (Molecular Pharmacology Branch, DTP, NCI, 2023)

Tested on: K24384-001-R-PDC complex spheroid viability
Test: Anticancer human tumor K24384-001-R-PDC patient-derived pancreatic adenocarcinoma cell line growth inhibition
Conditions: for IC50: curve of first compound; for viability, T/C: stronger effect = lower value
Outline: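 Drug combinations with the LSD1 inhibitor iadademstat tested on tumor cells co-cultured as spheroids with endothelial cells and mesenchymal stem cells. Concentrations descended in half-log increments from clinical Cmax or 10 microM.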
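Further: spheroids exposed to agents for seven days before luminescence viability reading.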
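Wherever viability, T/C is given: 100% = DMSO vehicle control viability.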

`Nc1ccccc1NC(=O)c1ccc(CNC(=O)OCc2cccnc2)cc1` + NC1CCC(NC2CC2c2ccccc2)CC1 showed an IC50 (second compound 0.1 µM) of 376 nM, an IC50 (second compound 0.316 µM) of 444 nM and an IC50 (second compound 1 µM) of 447 nM. It also gave an IC50 (second compound 3.16 µM) of 401 nM, an IC50 (second compound 10 µM) of 321 nM and a viability, T/C (second compound 0.1 µM, first compound 0.00949 µM) of 86.6%. For the same molecule, the viability, T/C (second compound 0.1 µM, first compound 0.03 µM) was 84.9%, the viability, T/C (second compound 0.1 µM, first compound 0.0949 µM) was 76.2% and the viability, T/C (second compound 0.1 µM, first compound 0.3 µM) was 61.3%. It also gave a viability, T/C (second compound 0.1 µM, first compound 0.949 µM) of 5.83%, a viability, T/C (second compound 0.1 µM, first compound 3 µM) of 0.14% and a viability, T/C (second compound 0.316 µM, first compound 0.00949 µM) of 79.7%. For the same molecule, the viability, T/C (second compound 0.316 µM, first compound 0.03 µM) was 82.1%, the viability, T/C (second compound 0.316 µM, first compound 0.0949 µM) was 83.7% and the viability, T/C (second compound 0.316 µM, first compound 0.3 µM) was 70.8%. It also gave a viability, T/C (second compound 0.316 µM, first compound 0.949 µM) of 9.57%, a viability, T/C (second compound 0.316 µM, first compound 3 µM) of 0.15% and a viability, T/C (second compound 1 µM, first compound 0.00949 µM) of 80.3%. It also gave a viability, T/C (second compound 1 µM, first compound 0.03 µM) of 89%, a viability, T/C (second compound 1 µM, first compound 0.0949 µM) of 92% and a viability, T/C (second compound 1 µM, first compound 0.3 µM) of 70.6%. The viability, T/C (second compound 1 µM, first compound 0.949 µM) was 10.4%, the viability, T/C (second compound 1 µM, first compound 3 µM) was 0.13% and the viability, T/C (second compound 3.16 µM, first compound 0.00949 µM) was 79.9%. The viability, T/C (second compound 3.16 µM, first compound 0.03 µM) was 88.2%, the viability, T/C (second compound 3.16 µM, first compound 0.0949 µM) was 80.2% and the viability, T/C (second compound 3.16 µM, first compound 0.3 µM) was 65.2%. For the same molecule, the viability, T/C (second compound 3.16 µM, first compound 0.949 µM) was 5.24%, the viability, T/C (second compound 3.16 µM, first compound 3 µM) was 0.16% and the viability, T/C (second compound 10 µM, first compound 0.00949 µM) was 84.1%. The viability, T/C (second compound 10 µM, first compound 0.03 µM) was 90.7%, the viability, T/C (second compound 10 µM, first compound 0.0949 µM) was 88.7% and the viability, T/C (second compound 10 µM, first compound 0.3 µM) was 53%. It also gave a viability, T/C (second compound 10 µM, first compound 0.949 µM) of 1.77% and a viability, T/C (second compound 10 µM, first compound 3 µM) of 0.2%.
